Measured values published in US5780307A, “Immunosuppressive drug binding proteins and use” (priority 1996, dated 1998).
Where “and” joins values, the source holds several entries; their conditions need not be identical. Equal entries are not always repeated. Where two headings read alike, the source gives them in different places. Starred links: 1 amine or outer side, 2 acyl side, 3 side chain; linkers in the order of their positions; H or OH if unused. Residues, ends and D or L forms follow the SMILES beside them. *: point of attachment. pNA = O=[N+]([O-])c1ccc(N*)cc1; Suc = O=C(CCC(=O)[*:2])[*:1]

How the values were obtained:
[1] = system: purified 50-54 kDa binding protein (JURKAT cells); experiment: Binding competition curves, purified 50-54 kDa binding protein, LH-20 separation
Protocol: Binding of [^3 H-dihydro]-FK506 to this protein was inhibited in a dose-dependent manner by rapamycin (B50 =0. 1 nM), whereas binding of [^3 H]-CSA to this protein was not affected by rapamycin at concentrations as high as 300 nM.

[2] = system: JURKAT cell cytosol protein fractions; experiment: Binding and competition in JURKAT cytosol protein fractions; design: competition for CsA binding to 16-18 kDa and 50-54 kDa fractions / inhibition of [3H-dihydro]-FK-506 binding in all fractions: unit of the concentration uncertain
Protocol: This fraction (3.02 mg in 2.7 mL) was then passed through a BioSil-125 HPLC column at a flow rate of 1.0 mL/minute of 10 mM phosphate buffer, pH 6.8. Those fractions around the expected molecular weight (around 50 kDa) were tested for binding to [^3 H]

[3] = system: 50-54 kDa binding protein (JURKAT cells); experiment: Scatchard / direct binding to purified 50-54 kDa immunophilin
Protocol: (§3) Association constants, specific binding activities, and numbers and types of binding sites can be obtained from Scatchard and Hill plots, using EBDA and LIGAND software.
(§4) Bound and free ligand were separated using the above-described LH-20 system.
(§5) The binding proteins purified in Example 5 were incubated with increasing amounts of labeled ligand and the binding data analyzed according to Scatchard.

[4] = system: calf thymus 50-54 kDa immunophilin; experiment: Rotamase (peptidyl-prolyl cis-trans isomerase) assay, 50-54 kDa immunophilin; type: biochemical; design: key: no activity observed; conditions: rotamase activity with this peptide as substrate
Protocol: (§1) Rotamase activity (cis-trans peptidyl-prolyl isomerase activity) may be assayed in purified immunophilins using the methods of Fischer et al., Nature, 337:476 (1989) and Lange et al., Nature 4 331:453 (1988), which are incorporated herein by reference.
(§2) Only peptidyl propyl cis-trans isomerase activity to kobs values of greater than about 0.5 min^-1 are considered significant. Values below this are not considered to be due to the catalytic properties of the protein being analyzed.

10-12 kDa immunophilin = experiment: Rotamase (peptidyl-prolyl cis-trans isomerase) assay, 10-12 kDa immunophilin; type: biochemical; design: key: no activity observed; conditions: rotamase activity with this peptide as substrate
Protocol: as §1, §2

[5] = system: 34-37 kDa immunophilin (Jurkat cells); experiment: Radioreceptor assay / Scatchard analysis, purified 34-37 kDa immunophilin; type: binding
Protocol: Receptor density (Bmax), affinity (Kd) and Hill coefficients (nH) were obtained using EBDA and Ligand computer programs. Radioreceptor assay: The radioreceptor assay was done in a final volume of 250 μl. […] To assess total binding, 25 μL of 50 % ethanol alone was added to maintain a constant level of ethanol in the reaction. 100-150 μL of 5 mM phosphate buffer, pH 6.8, containing 0.2% Tween 20, was added. 2-5 μg protein solution in 50-100 μL was added to obtain a final reaction volume of 250 μL. Following a 20 minute incubation at 25° C. on a shaker, 200 μL of the reaction mixture was added to Sephadex LH-20 columns (Pharmacia Biotech, Piscataway, N.J., U.S.A.,1.8 mL bed volume) equilibrated with LH-20 assay buffer (20 mM Tris buffer, pH 7.2, 5 mM β-mercaptoethanol and 0.05% sodium azide).
SDS-PAGE electrophoresis: The protein from the gel filtration fraction was analyzed for purity using 10% SDS-PAGE electrophoresis in the presence and absence of mercaptoethanol and visualized using DAIICHI-II silver staining. […] The data were analyzed using EBDA and Ligand computer programs.

[6] = Storage stability of FK-506 in frozen blood; type: physicochemical; conditions: frozen (-20° C.) blood
Protocol: The competition-type PBA was conducted as follows. […] Following a 20-minute incubation at 25° C., 100 μL of a reaction mixture was added to a 1.8 mL bed volume Sephadex LH-20 column preequilibrated with 20 mM Tris buffer, pH 7.2-5 mM 2-mercaptoethanol-0.05% NaN3. Elution with five 250 μL portions of this buffer completely separated free from protein-bound radioligand. The protein-bound radioactivity in the 1.25 mL of eluate was measured in 10 mL Optima Gold Scintillation Cocktail (Packard Chemicals, Meriden, Conn.) in a liquid scintillation spectrometer operating at 59% counting efficiency. […] All analyses were performed in duplicate.

[7] = system: 50-54 kDa binding protein (JURKAT cells)
Protocol: as §3, §4, §5

[8] = target: 10-12 kDa binding protein (JURKAT cells) (Homo sapiens, UniProt P62942); conditions: Scatchard analysis, 10-12 kDa (8-12 kDa) protein
Sequence of 10-12 kDa binding protein (JURKAT cells) (P62942 whole entry): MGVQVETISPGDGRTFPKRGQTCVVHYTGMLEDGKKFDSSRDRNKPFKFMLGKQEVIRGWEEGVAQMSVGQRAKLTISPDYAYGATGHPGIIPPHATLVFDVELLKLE
Protocol: as §3, §5

Row | Structure (SMILES) | kobs, 50-54 kDa [4] | kobs, 10-12 kDa (10-12 kDa immunophilin) | also measured
1 | CO[C@H]1C[C@@H]2CC[C@@H](C)[C@@](O)(O2)C(=O)C(=O)N2CCCC[C@H]2C(=O)O[C@H]([C@H](C)C[C@@H]2CC[C@@H](O)[C@H](OC)C2)CC(=O)[C@H](C)/C=C(\C)[C@@H](O)[C@@H](OC)C(=O)[C@H](C)C[C@H](C)/C=C/C=C/C=C/1C [rapamycin] | – | – | IC50 ([1]; 1.8 pmol [3H-dihydro]-FK-506, 15 minutes at 25° C., read-out: B50, inhibition of [3H-dihydro]-FK506 binding): 0.1 nM; effect on binding of [3H]-CSA to the 50-54 kDa protein ([1]; concentrations as high as 300 nM): not affected; inhibition of [3H-dihydro]-FK-506 binding in all fractions ([2]; 0.7 (unit uncertain)): inhibited; competition for CsA binding to 16-18 kDa and 50-54 kDa fractions ([2]; 70 (unit uncertain)): did not compete; binding to purified 50-54 kDa binding protein [3]: bound; Kd ([3]; read-out: dissociation constant, 50-54 kDa protein, unit inferred): 0.1 to 0.2 nM
2 | C[C@H](NC(=O)CCC(=O)O)C(=O)N[C@@H](CCC(N)=O)C(=O)N1CCC[C@H]1C(=O)N[C@@H](Cc1ccccc1)C(=O)Nc1ccc([N+](=O)[O-])cc1 [Suc--Ala--Gln--Pro--Phe--pNA] (Suc-AQPF-pNA) | 0.00367 s⁻¹ | 0.23 min^-1 | –
3 | C=CCC1C=C(C)CC(C)CC(OC)C2OC(O)(C(=O)C(=O)N3CCCCC3C(=O)OC(C(C)=CC3CCC(O)C(OC)C3)C(C)C(O)CC1=O)C(C)CC2OC (stereo not drawn) [FK-506, tacrolimus] | – | – | inhibition of binding of [3H]-CsA to the 50-54 kDa protein ([1]; all concentrations tested): inhibited; inhibition of binding of [3H]-CSA ([2]; isoelectric focusing fraction at pH 6.29): inhibited; displacement of bound radioligand from the binding sites ([5]; 1 μM unlabelled drug, 20 min): > 95%; time without variability in assay results on storage [6]: at least 30 days; Kd [7]: 1 to 10 nM and ~2 nM; binding capacity / specific binding activity [8]: about 0.5 nmol/mg; binding to purified 50-54 kDa binding protein [3]: bound
4 | [3H]CC([3H])C[C@@H]1/C=C(\C)C[C@H](C)C[C@H](OC)[C@H]2O[C@@](O)(C(=O)C(=O)N3CCCC[C@H]3C(=O)O[C@H](/C(C)=C/[C@@H]3CC[C@@H](O)[C@H](OC)C3)[C@H](C)[C@@H](O)CC1=O)[C@H](C)C[C@@H]2OC (stereo partly drawn) [tritiated dihydro FK506] | – | – | Hill coefficients ([5]; saturation experiments): near unity
5 | CC(C)C[C@H](NC(=O)[C@H](C)NC(=O)CCC(=O)O)C(=O)N1CCC[C@H]1C(=O)N[C@@H](Cc1ccccc1)C(=O)Nc1ccc([N+](=O)[O-])cc1 [Suc--Ala--Leu--Pro--Phe--pNA] (Suc-ALPF-pNA) | 0.00267 s⁻¹ | 1.61 min^-1 | –
6 | CC(C)C[C@H](NC(=O)[C@@H]1CCCN1C(=O)[C@H](C)NC(=O)[C@H](C)NC(=O)CCC(=O)O)C(=O)Nc1ccc([N+](=O)[O-])cc1 [Suc--Ala--Ala--Pro--Leu--pNA] (Suc-AAPL-pNA) | 0.0075 s⁻¹ | 0.93 min^-1 | –
7 | C[C@H](NC(=O)CCC(=O)O)C(=O)N[C@@H](Cc1c[nH]c2ccccc12)C(=O)N1CCC[C@H]1C(=O)N[C@@H](Cc1ccccc1)C(=O)Nc1ccc([N+](=O)[O-])cc1 [Suc--Ala--Trp--Pro--Phe--pNA] (Suc-AWPF-pNA) | 0.00233 s⁻¹ | 0.21 min^-1 | –
8 | CC[C@H](C)[C@H](NC(=O)[C@H](C)NC(=O)CCC(=O)O)C(=O)N1CCC[C@H]1C(=O)N[C@@H](Cc1ccccc1)C(=O)Nc1ccc([N+](=O)[O-])cc1 [Suc--Ala--Ile--Pro--Phe--pNA] (Suc-AIPF-pNA) | 0.00033 s⁻¹ | 0.69 min^-1 | –
9 | C[C@H](NC(=O)CCC(=O)O)C(=O)N[C@@H](CCC(=O)O)C(=O)N1CCC[C@H]1C(=O)N[C@@H](Cc1ccccc1)C(=O)Nc1ccc([N+](=O)[O-])cc1 [Suc--Ala--Glu--Pro--Phe--pNA] (Suc-AEPF-pNA) | a | a | –
10 | C[C@H](NC(=O)CCC(=O)O)C(=O)NCC(=O)N1CCC[C@H]1C(=O)N[C@@H](Cc1ccccc1)C(=O)Nc1ccc([N+](=O)[O-])cc1 [Suc--Ala--Gly--Pro--Phe--pNA] (Suc-AGPF-pNA) | 0.00667 s⁻¹ | a | –
11 | CCC[C@@H]1/C=C(\C)C[C@H](C)C[C@H](OC)[C@H]2O[C@@](O)(C(=O)C(=O)N3CCCC[C@H]3C(=O)O[C@H](/C(C)=C/[C@@H]3CC[C@@H](O)[C@H](OC)C3)[C@H](C)[C@@H](O)CC1=O)[C@H](C)C[C@@H]2OC [tritiated dihydro FK506] | – | – | Kd ([5]; saturation experiments, 0.25 to 20 nM): 4.5 nM
12 | C[C@H](NC(=O)CCC(=O)O)C(=O)N[C@@H](Cc1c[nH]cn1)C(=O)N1CCC[C@H]1C(=O)N[C@@H](Cc1ccccc1)C(=O)Nc1ccc([N+](=O)[O-])cc1 [Suc--Ala--His--Pro--Phe--pNA] (Suc-AHPF-pNA) | 0.001 s⁻¹ | a | –
13 | O=C(O)CCC(=O)N[C@@H](Cc1ccccc1)C(=O)N1CCC[C@H]1C(=O)N[C@@H](Cc1ccccc1)C(=O)Nc1ccc([N+](=O)[O-])cc1 [Suc--Phe--Pro--Phe--pNA] (Suc-Phe-Pro-Phe-pNA) | 0.001 s⁻¹ | 0.63 min^-1 | –
14 | C[C@H](NC(=O)CCC(=O)O)C(=O)N[C@@H](Cc1ccccc1)C(=O)N1CCC[C@H]1C(=O)N[C@@H](Cc1ccccc1)C(=O)Nc1ccc([N+](=O)[O-])cc1 [Suc--Ala--Phe--Pro--Phe--pNA] | 0.003 s⁻¹ | 3.0 min^-1 | –
15 | C[C@H](NC(=O)CCC(=O)O)C(=O)N[C@@H](CCCCN)C(=O)N1CCC[C@H]1C(=O)N[C@@H](Cc1ccccc1)C(=O)Nc1ccc([N+](=O)[O-])cc1 [Suc--Ala--Lys--Pro--Phe--pNA] | 0.004 s⁻¹ | 0.36 min^-1 | –
16 | CCCC[C@H](NC(=O)[C@H](C)NC(=O)CCC(=O)O)C(=O)N1CCC[C@H]1C(=O)N[C@@H](Cc1ccccc1)C(=O)Nc1ccc([N+](=O)[O-])cc1 [Suc--Ala--Nle--Pro--Phe--pNA] | 0.00417 s⁻¹ | 0.58 min^-1 | –
